Consider 9 molecules from PMC10116469 (Nature Communications, 2023).

Assay [1] concerns the target MPXV VP39 2′-O-RNA methyltransferase (Monkeypox virus, UniProt A0A7H0DN74). As to the kind of experiment: biochemical.
For assay [2], the system named is SARS-CoV-2 nsp14 N7-MTase. The settings on record: cited from earlier work.
[3] abbreviates: IC50, individual fit of data set 1.
Setting [4] is: IC50, individual fit of data set 2.
Setting [5] is: IC50 average (averaged IC50 values from independent measurement).

Sequence of MPXV VP39 2′-O-RNA methyltransferase (A0A7H0DN74 whole entry, looked up): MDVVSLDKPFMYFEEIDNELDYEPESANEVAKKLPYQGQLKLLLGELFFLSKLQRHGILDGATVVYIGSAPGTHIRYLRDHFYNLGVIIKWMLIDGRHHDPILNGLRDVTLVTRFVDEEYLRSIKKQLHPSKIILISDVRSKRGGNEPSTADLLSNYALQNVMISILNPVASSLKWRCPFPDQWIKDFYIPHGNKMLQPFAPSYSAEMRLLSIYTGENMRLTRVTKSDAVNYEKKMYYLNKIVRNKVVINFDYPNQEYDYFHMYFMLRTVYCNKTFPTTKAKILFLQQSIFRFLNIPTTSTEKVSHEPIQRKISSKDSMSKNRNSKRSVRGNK

`Nc1ncnc2c1c(C#Cc1ccccc1)cn2[C@@H]1O[C@H](CSCC[C@H](N)C(=O)O)[C@@H](O)[C@H]1O` [TO427]: the “HillSlope, individual fit of data set 1” value in assay [1] was -1.507. In addition, the “HillSlope, individual fit of data set 2” value in assay [1] is given as -1.605. The “LogIC50, fit of all data points” value in assay [1] is -0.9412. Further, the “LogIC50, individual fit of data set 1” value in assay [1] was -0.9395. Also, the “LogIC50, individual fit of data set 2” value in assay [1] was -0.9422. For the same molecule, the IC50 in assay [1] (IC50 (mean ± SEM)) came to 0.115 ± 0.0004 µM; in assay [1] (IC50, fit of all data points) it was 0.114 µM; in assay [1] (setting [3]), 0.115 µM; in assay [1] (setting [4]) it was 0.114 µM; in assay [1] (setting [5]), 0.115 µM.
With `Nc1ncnc2c1c(C#Cc1cccc3ccccc13)cn2[C@@H]1O[C@H](CSCC[C@H](N)C(=O)O)[C@@H](O)[C@H]1O` [TO494], in assay [1], the “HillSlope, individual fit of data set 1” value is reported as -1.676; the “HillSlope, individual fit of data set 2” value is given as ~ -5.860; the “LogIC50, fit of all data points” value was -0.9386; the “LogIC50, individual fit of data set 1” value is -1.017. Moreover, the “LogIC50, individual fit of data set 2” value in assay [1] was ~ -0.7109. Also, the IC50 in assay [1] (IC50, fit of all data points) was 0.115 µM. Further, the half-inhibitory concentration (IC50) in assay [1] (setting [3]) came out at 0.0961 µM. In assay [1] (setting [5]), this molecule returned an IC50 of 0.145 µM.
Regarding `Nc1ncnc2c1c(C#Cc1nc3ccccc3[nH]1)cn2[C@@H]1O[C@H](CSCC[C@H](N)C(=O)O)[C@@H](O)[C@H]1O` [TO500], in assay [1], the “HillSlope, individual fit of data set 1” value was -1.441; the “HillSlope, individual fit of data set 2” value is reported as -1.353; the “LogIC50, fit of all data points” value is -0.7728; the “LogIC50, individual fit of data set 1” value is -0.7814. The “LogIC50, individual fit of data set 2” value in assay [1] is -0.7635. In assay [1] (IC50, fit of all data points), this molecule came in with an IC50 of 0.169 µM. In assay [1] (setting [3]), this molecule yielded a 50% inhibitory concentration (IC50) of 0.165 µM. In assay [1] (setting [4]), half-maximal inhibition (IC50) was put at 0.172 µM. Moreover, the 50% inhibitory concentration (IC50) in assay [1] (setting [5]) was 0.169 µM.
Turning to `Nc1ncnc2c1c(C#Cc1ccc3ccccc3c1)cn2[C@@H]1O[C@H](CSCC[C@H](N)C(=O)O)[C@@H](O)[C@H]1O` [TO504], in assay [1], the “HillSlope, individual fit of data set 1” value was -1.768; the “HillSlope, individual fit of data set 2” value is reported as -1.833; the “LogIC50, fit of all data points” value was -1.107; the “LogIC50, individual fit of data set 1” value is -1.131. Further, in assay [1], the “LogIC50, individual fit of data set 2” value was -1.08. In addition, half-maximal inhibition in assay [1] (IC50, fit of all data points) (IC50) was put at 0.0781 µM. The molecule further returned a 50% inhibitory concentration (IC50) in assay [1] (setting [3]) of 0.0739 µM. Besides, the 50% inhibitory concentration (IC50) in assay [1] (setting [4]) was determined as 0.0832 µM. The molecule also returned a half-maximal inhibitory concentration (IC50) in assay [1] (setting [5]) of 0.079 µM.
Turning to `Nc1ncnc2c1c(C#Cc1cnc3ccccc3c1)cn2[C@@H]1O[C@H](CSCC[C@H](N)C(=O)O)[C@@H](O)[C@H]1O` [TO507], the “inhibition of SARS-CoV-2 nsp14” value in assay [2] is “nanomolar inhibitors”. Besides, in assay [1], the “HillSlope, individual fit of data set 1” value was -1.446; the “HillSlope, individual fit of data set 2” value was -1.972; the “LogIC50, fit of all data points” value was -0.9412; the “LogIC50, individual fit of data set 1” value is on record as -0.9877. For the same molecule, the “LogIC50, individual fit of data set 2” value in assay [1] is reported as -0.8836. The IC50 in assay [1] (IC50, fit of all data points) was found to be 0.114 µM. In assay [1] (setting [3]), this molecule had a half-inhibitory concentration (IC50) of 0.103 µM. This molecule returned an IC50 in assay [1] (setting [4]) of 0.131 µM. Moreover, the midpoint of inhibition in assay [1] (setting [5]), the IC50, lay at 0.117 µM.
For `CCc1cn([C@@H]2O[C@H](CSCC[C@H](N)C(=O)O)[C@@H](O)[C@H]2O)c2ncnc(N)c12` [TO1111], in assay [1], the “HillSlope, individual fit of data set 1” value is -1.277; the “HillSlope, individual fit of data set 2” value is recorded as -1.517; the “LogIC50, fit of all data points” value is -1.058; the “LogIC50, individual fit of data set 1” value is listed as -1.122. For the same molecule, in assay [1], the “LogIC50, individual fit of data set 2” value was -0.9871. The same molecule had a concentration for half-maximal inhibition (IC50) in assay [1] (IC50, fit of all data points) of 0.0875 µM. In assay [1] (setting [3]), this molecule returned an IC50 of 0.0755 µM. Besides, in assay [1] (setting [4]), the IC50 stood at 0.103 µM. The same molecule came in with an IC50 in assay [1] (setting [5]) of 0.089 µM.
As to `C=Cc1cn([C@@H]2O[C@H](CSCC[C@H](N)C(=O)O)[C@@H](O)[C@H]2O)c2ncnc(N)c12` [TO1116], in assay [1], the “HillSlope, individual fit of data set 1” value is reported as -0.9545; the “HillSlope, individual fit of data set 2” value was -1.033; the “LogIC50, fit of all data points” value is given as -0.836; the “LogIC50, individual fit of data set 1” value was -0.8617. In assay [1], the “LogIC50, individual fit of data set 2” value is on record as -0.8127. In assay [1] (IC50, fit of all data points), this molecule showed an IC50 of 0.146 µM. The molecule further had a half-maximal inhibitory concentration (IC50) in assay [1] (setting [3]) of 0.138 µM. This molecule had a 50% inhibitory concentration (IC50) in assay [1] (setting [4]) of 0.154 µM. Also, half-maximal inhibition in assay [1] (setting [5]) (IC50) was put at 0.146 µM.
Regarding `Nc1ncnc2c1c(I)cn2[C@@H]1O[C@H](CSCC[C@H](N)C(=O)O)[C@@H](O)[C@H]1O` [TO1119], in assay [1], the “HillSlope, individual fit of data set 1” value is listed as -1.304; the “HillSlope, individual fit of data set 2” value is listed as -1.575; the “LogIC50, fit of all data points” value is given as -0.8937; the “LogIC50, individual fit of data set 1” value is -0.9194. For the same molecule, in assay [1], the “LogIC50, individual fit of data set 2” value is on record as -0.8669. The molecule also came in with a concentration for half-maximal inhibition (IC50) in assay [1] (IC50) of 0.128 µM. Moreover, the midpoint of inhibition in assay [1] (IC50, fit of all data points), the IC50, lay at 0.128 µM. In assay [1] (setting [3]), the midpoint of inhibition, the IC50, lay at 0.12 µM. Moreover, in assay [1] (setting [4]), the IC50 was 0.136 µM.
Turning to `Nc1ncnc2c1ncn2[C@@H]1O[C@H](C[C@@H](N)CC[C@H](N)C(=O)O)[C@@H](O)[C@H]1O` [sinefungin, reference compound], in assay [1], the “HillSlope, individual fit of data set 1” value is recorded as -0.961; the “HillSlope, individual fit of data set 2” value is given as -0.8657; the “LogIC50, fit of all data points” value amounted to 0.3693; the “LogIC50, individual fit of data set 1” value is 0.3792. The “LogIC50, individual fit of data set 2” value in assay [1] worked out at 0.3552. The same molecule gave a half-maximal inhibitory concentration (IC50) in assay [1] (IC50) of 2.3 µM. This molecule also yielded an IC50 in assay [1] (IC50, fit of all data points) of 2.34 µM. In addition, in assay [1] (setting [3]), the half-maximal inhibitory concentration (IC50) is 2.39 µM. This molecule displayed a 50% inhibitory concentration (IC50) in assay [1] (setting [4]) of 2.27 µM. The molecule further yielded a half-inhibitory concentration (IC50) in assay [1] (setting [5]) of 2.33 µM.

One may read the IC50 as the point on the concentration scale where inhibition reaches its midpoint. A high value points to weaker potency in that assay.
